Molecules are shown by their SMILES. Values joined by “and” are separate entries in the source; they are usually repeats but may differ in a detail not shown here. Identical values can stand only once. Counter-ions that a name gives are not always drawn.

Experiment [1] addresses muscarinic cholinergic receptor. Put plainly: [^3 H] Quinuclidinyl Benzilate (^3 H-QNB) Binding Assay, rat cerebral cortex homogenate. The conditions noted are these: pH 7.4.
Experiment [2] shares this target. Put plainly: [^3 H]-Cis-methyldioxolane (^3 H-CD) Binding Assay (High Affinity), rat cerebral cortex homogenate. The conditions noted are these: 1.0 nM ^3 H-CD, 25° C., 120 minutes.
Experiment [3] concerns SDAT patients. The conditions noted are these: compared to the anticholinesterase inhibitor physostigmine; cited from earlier work.
Experiment [4] relates to muscarinic sites. The conditions noted are these: cited from earlier work.
Setting [5] is: rat cerebral cortex, 0.25 nM ^3 H-QNB, 25° C.
Setting [6] is: rat cerebral cortex, 0.25 nM ^3 H-QNB, 25° C., hydrochloride.

Regarding `CSc1sccc1C#CCN1CCCCC1` [1-[3-[2-(Methylthio)-3-thienyl]-2-propynyl]piperidine], the IC50 was 1.14 µM in experiment [1] (setting [5]) and 31.1 nM in experiment [2] (pH 7.4).

Turning to `CSc1ccsc1C#CCN1CCCCC1` [1-[3-[3-(Methylthio)-2-thienyl]-2-propynyl]piperidine], the IC50 in experiment [1] (setting [5]) amounted to 1.97 µM; in experiment [2] (pH 7.4) it was 122 nM.

Take `CSc1ccsc1C#CCN(C)C` [N,N-Dimethyl-3-[3-(methylthio)-2-thienyl]-2-propyn-1-amine, hydrochloride]: the IC50 in experiment [1] (setting [6]) was 40.4 µM; in experiment [2] (pH 7.4, hydrochloride), 1240 nM.

For the molecule `CSc1ccsc1C#CC[N+](C)(C)C` [N,N,N-Trimethyl-3-[3-(methylthio)-2-thienyl]-2-propyn-1-aminium, iodide], the IC50 in experiment [1] (setting [5]) was 5.98 µM; in experiment [2] (pH 7.4) it was 5.92 nM.

On to `CSc1cscc1C#CC[N+](C)(C)C` [N,N,N-Trimethyl-3-[4-(methylthio)-3-thienyl]-2-propyn-1-aminium, iodide], for which the results for the IC50 in experiment [1] and in experiment [2] (pH 7.4) were 9.05 µM and 121 nM, respectively.

In the case of `CSc1cscc1C#CCN1CCCCC1` [1-[3-[4-(Methylthio)-3-thienyl]-2-propynyl]piperidine], the IC50 is 5.35 µM and 5.88 µM in experiment [1] (setting [5]); 998 nM and 530 nM in experiment [2] (pH 7.4).

As to `CSc1ccsc1C#CCN1CCCC1` [1-[3-[3-(Methylthio)-2-thienyl]-2-propynyl]pyrrolidine, hydrochloride], the IC50 in experiment [1] (setting [6]) amounted to 1.87 µM; in experiment [2] (pH 7.4, hydrochloride), 44 nM.

For the molecule `CSc1cscc1C#CCN1CCCC1` [1-[3-[4-(Methylthio)-3-thienyl]-2-propynyl]pyrrolidine], the IC50 in experiment [1] (setting [5]) was 3.34 µM; in experiment [2] (pH 7.4), 366 nM.

With `CSc1ccsc1C#CCN1CCCC1` [1-[3-[3-(Methylthio)-2-thienyl]-2-propynyl]pyrrolidine], the IC50 was 1.38 µM in experiment [1] (setting [5]) and 16 nM in experiment [2] (pH 7.4).

For the molecule `CSc1sccc1C#CCN1CCCCC1` [1-[3-[2-(Methylthio)-3-thienyl]-2-propynyl]piperidine, hydrochloride], the IC50 in experiment [1] (setting [6]) came to 2.2 µM; in experiment [2] (pH 7.4, hydrochloride), 32.5 nM.

Take `COC(=O)C1=CCCN(C)C1` [arecoline]: in experiment [3], the “improvement in SDAT patients” value is given as “more-consistent improvement”.

For the molecule `CSc1sccc1C#CCN(C)C` [N,N-Dimethyl-3-[2-(methylthio)-3-thienyl]-2-propyn-1-amine, hydrochloride], the IC50 in experiment [1] (setting [6]) stood at 23.3 µM; in experiment [2] (pH 7.4, hydrochloride), 969 nM.

Consider `CSc1sccc1C#CC[N+](C)(C)C` [N,N,N-Trimethyl-3-[2-(methylthio)-3-thienyl]-2-propyn-1-aminium, iodide], for which the half-maximal inhibitory concentration (IC50) in experiment [1] (setting [5]) came to 3.44 µM; in experiment [2] (pH 7.4) it was 52.3 nM.

Turning to `CSc1sccc1C#CCN(C)C` [N,N-Dimethyl-3-[2-(methylthio)-3-thienyl]-2-propyn-1-amine], the IC50 turned out to be 21.4 µM in experiment [1] (setting [5]) and 942 nM in experiment [2] (pH 7.4).

Turning to `CSc1cscc1C#CCN(C)C` [N,N-Dimethyl-3-[4-(methylthio)-3-thienyl]-2-propyn-1-amine], the IC50 was found to be 239 µM in experiment [1] (setting [5]) and 4830 nM in experiment [2] (pH 7.4).

Regarding `CSc1sccc1C#CCN1CCCC1` [1-[3-[2-(Methylthio)-3-thienyl]-2-propynyl]pyrrolidine], the results for the IC50 in experiment [1] (setting [5]) and in experiment [2] (pH 7.4) were 0.92 µM and 31 nM, respectively.

On to `CSc1cscc1C#CCN1CCCC1` [1-[3-[4-(Methylthio)-3-thienyl]-2-propynyl]pyrrolidine, hydrochloride], for which the IC50 in experiment [1] (setting [6]) stood at 2.27 µM; in experiment [2] (pH 7.4, hydrochloride), 110 nM.

In experiment [1] (setting [6]), `CSc1sccc1C#CCN1CCCC1` [1-[3-[2-(Methylthio)-3-thienyl]-2-propynyl]pyrrolidine, hydrochloride] returned an IC50 of 0.81 µM.

As to `CSc1ccsc1C#CCN(C)C` [N,N-Dimethyl-3-[3-(methylthio)-2-thienyl]-2-propyn-1-amine], the values for the IC50 in experiment [1] (setting [5]) and in experiment [2] (pH 7.4) were 35 µM and 1120 nM, respectively.

With `CC(=O)N(C)C(C)C#CCN1CCCC1` (stereo not shown) [BM-5, N-methyl-N-(1-methyl-4-pyrrolidino-2-butynyl)acetamide], the “activity at muscarinic sites” value in experiment [4] (Eur. J. Med. Chem., 1982, 17, 317) is “antagonist at some muscarinic sites while being an agonist at most others”. Also, the postsynaptic cholinergic activity result in experiment [4] (postsynaptic) was “postsynaptic partial cholinergic agonist”. In addition, in experiment [4] (presynaptic), the presynaptic cholinergic activity result was “presynaptic cholinergic antagonist”.

As to `CSc1ccsc1C#CCN1CCCCC1` [1-[3-[3-(Methylthio)-2-thienyl]-2-propynyl]piperidine, hydrochloride], the IC50 in experiment [1] (setting [6]) worked out at 2.1 µM; in experiment [2] (pH 7.4, hydrochloride), 44 nM.

As for `CSc1cscc1C#CCN(C)C` [N,N-Dimethyl-3-[4-(methylthio)-3-thienyl]-2-propyn-1-amine, hydrochloride], the IC50 came out at 67.5 µM in experiment [1] (setting [6]) and 1230 nM in experiment [2] (pH 7.4, hydrochloride).

Source of the values: US5025099A, “(3-amino-1-propynyl)methylthiothiophene derivatives” (American Cyanamid Company, priority 1990, dated 1991).
